Experimental data from BindingDB's records for doi:10.1124/jpet.103.051797 (Institut De Recherches Servier, 2003).

Tests used:
[1] = target: 5-hydroxytryptamine receptor 2A (Rattus norvegicus, UniProt P14842)
[2] = target: T1, 5-hydroxytryptamine receptor 2C (Sus scrofa, UniProt K7GSR7)
T1 sequence (K7GSR7 whole entry): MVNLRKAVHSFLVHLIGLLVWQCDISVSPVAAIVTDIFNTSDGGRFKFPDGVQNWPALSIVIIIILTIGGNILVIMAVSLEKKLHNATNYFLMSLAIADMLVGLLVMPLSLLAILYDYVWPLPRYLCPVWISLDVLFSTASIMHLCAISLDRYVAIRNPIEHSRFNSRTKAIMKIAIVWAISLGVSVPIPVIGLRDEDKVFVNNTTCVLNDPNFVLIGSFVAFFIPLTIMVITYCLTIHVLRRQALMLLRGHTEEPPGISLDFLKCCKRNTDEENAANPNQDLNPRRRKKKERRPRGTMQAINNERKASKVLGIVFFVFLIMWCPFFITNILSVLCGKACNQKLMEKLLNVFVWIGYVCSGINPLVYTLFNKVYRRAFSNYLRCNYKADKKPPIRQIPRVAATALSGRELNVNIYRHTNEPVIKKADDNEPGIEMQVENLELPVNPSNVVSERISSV

[3] = target: 5-hydroxytryptamine receptor 2B (Homo sapiens, UniProt P41595)
5-hydroxytryptamine receptor 2B, sequence (P41595 whole entry): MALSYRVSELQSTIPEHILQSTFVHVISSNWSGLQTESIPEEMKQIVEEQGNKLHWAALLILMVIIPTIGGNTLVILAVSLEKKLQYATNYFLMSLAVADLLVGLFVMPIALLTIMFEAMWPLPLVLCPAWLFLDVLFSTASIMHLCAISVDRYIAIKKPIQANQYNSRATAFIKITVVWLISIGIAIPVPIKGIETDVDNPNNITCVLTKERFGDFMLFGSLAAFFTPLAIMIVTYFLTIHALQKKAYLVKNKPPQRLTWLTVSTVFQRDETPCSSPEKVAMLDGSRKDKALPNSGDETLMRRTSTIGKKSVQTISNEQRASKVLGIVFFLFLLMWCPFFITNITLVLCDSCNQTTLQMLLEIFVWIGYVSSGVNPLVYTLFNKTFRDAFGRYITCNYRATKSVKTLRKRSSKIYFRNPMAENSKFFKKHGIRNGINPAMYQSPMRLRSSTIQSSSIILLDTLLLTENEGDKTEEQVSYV

5-hydroxytryptamine receptor 2A, sequence (P14842 whole entry): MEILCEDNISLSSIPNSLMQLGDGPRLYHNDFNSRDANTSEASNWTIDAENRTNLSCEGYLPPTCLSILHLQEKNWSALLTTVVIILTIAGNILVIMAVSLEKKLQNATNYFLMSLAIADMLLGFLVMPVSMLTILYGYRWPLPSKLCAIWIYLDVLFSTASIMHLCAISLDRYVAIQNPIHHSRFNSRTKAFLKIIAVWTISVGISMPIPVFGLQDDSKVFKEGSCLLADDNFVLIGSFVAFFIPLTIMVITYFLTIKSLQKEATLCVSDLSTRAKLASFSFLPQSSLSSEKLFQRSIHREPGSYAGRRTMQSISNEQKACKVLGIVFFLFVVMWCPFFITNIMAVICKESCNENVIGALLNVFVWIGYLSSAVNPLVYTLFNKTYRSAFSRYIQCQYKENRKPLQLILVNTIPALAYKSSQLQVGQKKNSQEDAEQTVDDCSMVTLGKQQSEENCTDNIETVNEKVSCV

With COc1ccc2[nH]cc(CCNC(C)=O)c2c1 the Ki [1] was greater than 10000 nM and the Ki [2] was greater than 10000 nM.

Compound COc1ccc2cccc(CCNC(C)=O)c2c1 [S 20098] has a Ki [3] of 257 nM, a Ki [1] greater than 10000 nM and a Ki [2] of 407 nM.
